Assay results: US9981929B2, “Method for prevention of premature polymerization” (NITTO BELGIUM NV, priority 2015, dated 2018)

Legend:
[1] = Kugelrohr distillation (purification) of SMA in the presence of the inhibitors; settings: 500 ppm inhibitor, 10 g SMA, kugelrohr 240 °C, about 0.2 mbar; visual viscosity increase
Procedure: The temperature of the kugelrohr is set to 240° C. The distillation starts when the vacuum reached about 0.2 mbar. Polymerization in the rotating pitch is evaluated by visually determining increased viscosity.
The inhibitors were added as such to the SMA prior to the distillation, no methanolic solution as described earlier is used.

[2] = Synthesis of SMA via transesterification in the presence of the inhibitors; settings: 500 ppm inhibitor
Procedure: SMA is prepared via transesterification in the presence of the indicated inhibitors. A two-neck flask, equipped with a Dean-Stark apparatus and a reflux condenser, is charged with three equivalents of methyl methacrylate, one equivalent of stearyl/palmityl alcohol and 500 ppm of inhibitor. Air is bubbled through the solution using a needle, septum and vacuum pump, set at 900 mbar.
The methyl methacrylate/methanol azeotrope is collected and at the end of the reaction any remaining methyl methacrylate is removed under reduced pressure at the rotavapor.

[3] = end of reaction after removal of methanol and excess methyl methacrylate

Row | SMILES | Polymerization [1] | Properties end (color of the reaction mixture) [2, 3] | Properties end (precipitate / solubility of catalyst/inhibitor) [2, 3] | Properties start (color of the reaction mixture) ([2]; start of reaction) | Properties start (solubility of catalyst/inhibitor) ([2]; start of reaction)
1 | CCCCCCCCS(=O)(=O)[O-].CN(C)c1ccc2nc3ccc(N(C)C)cc3[s+]c2c1.[Cl-].[Na+] [Inhibitor I-1a] | no |  |  |  | 
2 | COc1ccc(O)cc1 [MeHQ, 4-methoxyphenol] |  | yellow liquid white | precipitate (catalyst) | colorless solution | homogeneous
3 | CCCCCCCCCCCCCCCCS(=O)(=O)[O-].CN(C)c1ccc2nc3ccc(N(C)C)cc3[s+]c2c1.[Cl-].[Na+] [Inhibitor I-2a] | no | brown liquid very |  | dark blue solution | 
4 | CN(C)c1ccc2nc3ccc(=[N+](C)C)cc-3sc2c1 [MB, methylene blue] |  | brown liquid |  | dark blue solution | 
5 | CCCCCCCCS(=O)(=O)[O-].CN(C)c1ccc2nc3ccc(N(C)C)cc3[s+]c2c1 [Inhibitor I-1, octanesulfonate salt of methylene blue] | no |  |  |  | 
6 | CC(C)(C)c1cc(OCCCS(=O)(=O)[O-])c(C(C)(C)C)cc1O.CN(C)c1ccc2nc3ccc(N(C)C)cc3[s+]c2c1 [Inhibitor I-4] | no | purple liquid |  | deep purple solution | 
